{"source": "patent US12577530B2", "about": "“Generation of a population of hindbrain cells and hindbrain-like organoids from pluripotent stem cells” (The Regents of the University of California, priority 2018, dated 2026)", "key": {"WTB and WTC hPSCs": {"tested_on": "WTB and WTC hPSCs", "assay": "WNT activation (CHIR 99021) during V2a interneuron differentiation, flow cytometry of CHX10", "type": "cell-based, human", "details": "2 μM CHIR99021 pretreatment two days and first 7 days of protocol, compared to untreated (UT) controls", "protocol": "To examine pretreatment effects of WNT, hiPSCs were plated onto a Matrigel-coated 24-well plate at 125,000 cells/cm^2 in mTeSR supplemented with 10 μM ROCK inhibitor and 2 μM CHIR99021. Two days later, the cell layers were dissociated with Accutase and the differentiation was performed as described above with the addition of 2 μM CHIR99021. The CHIR99021 treatment was continued until day 7."}, "hPSCs": {"tested_on": "hPSCs", "assay": "Monolayer hindbrain differentiation with varied pur or RA concentration, flow cytometry of CHX10 and LHX5", "type": "cell-based, human", "protocol": "hPSCs were seeded in mTeSR supplemented with 10 μM ROCK inhibitor and dual SMAD inhibitors 0.2 μM LDN193189 and 10 μM SB431542 (StemGent, Cambridge, MA) at 5,000-100,000 cells/cm^2 onto 24-well plates coated with Matrigel. On day 3, medium was changed to m TeSR supplemented with dual SMAD inhibitors only. On day 5, the base medium was switched to neural induction medium (DMEM F: 12 (Corning, Corning, NY), N2 supplement (Life Technologies, Carlsbad, CA), L-Glutamine (VWR), 2 μg/ml heparin (Sigma Aldrich, St. Louis, MO), non-essential amino acids (Mediatech INC, Manassas, VA), penicillin-streptomycin (VWR) supplemented with fresh 0.4 ug/ml ascorbic acid (Sigma Aldrich) and 10 ng/ml brain derived neurotrophin factor (BDNF, R&D Systems, Minneapolis, MN)) supplemented with dual SMAD inhibitors and 10 nM-10 μM retinoic acid (Sigma Aldrich). On day 7, dual SMAD inhibition was ceased and 10 nM-10 μM retinoic acid, 10 nM-10 μM pur (EMD Millipore, Darmstast, Germany) and 1 μM N—[N-(3,5-difluorophenacetyl)-L-alanyl]-S-phenylglycine t-butyl ester (DAPT) were added to the neural induction medium. Medium was changed every 2-3 days throughout the differentiation, with fresh supplements added each time for up to 17 days.\nAt day 17 of differentiation, cells were completely dissociated as described in 3.3.3 and stained with the Transcription Factor Buffer Set, which includes a fixation/permeabilization (FP) and wash/permeabilization (WP) buffer (BD Biosciences, Franklin Lakes, NJ). Dissociated samples were first fixed for 45 minutes at 4° C. in the FP buffer followed by a 20-minute block with WP buffer containing 5% normal donkey serum (NDS, Jackson Laboratory, Bay Harbor, ME). Primary antibodies against CHX10, LHX5, PHOX2A, and PHOX2B (Table 1) and the proper matching species isotype control were added into WP buffer containing 2% NDS and incubated at 4° C. for 45 minutes. After two washes with WP buffer, secondary antibodies donkey anti-mouse IgG, ALEXA FLUOR™ 488 (a fluorescent compound; Life Technologies), at a dilution of 1:200, were added to WP buffer and incubated at 4° C. for 45 minutes. After two washes with WP buffer, samples were passed through a 35-μm filter before assessing with a BD ACCURI™ C6 (BD) cytometer (minimum 10,000 events). Cytometry analysis was performed using FlowJo V10 (Flowjo, Ashland, OR)."}, "organoids": {"tested_on": "organoids", "assay": "Calcium imaging of maturing organoids (Ca^2+ fluctuations)", "type": "cell-based, human", "details": "day 33 onward", "protocol": "On day 17 of differentiation, organoids were switched to neural maturation medium (BRAINPHYS™ (neurophysiological basal medium) plus SM1 supplement (Stemcell Technologies (Bardy, van den Hurk et al. 2016)) supplemented with 10 ng/ml of BDNF, GDNF, CNTF, and IGF, R&D Systems). Medium was completely changed every 5 days for the remainder of the culture duration.\nEndogenous GCaMP6 signal was used to detect calcium flux in differentiations performed with the WTC GCaMP6 cell line. Alternatively, cultures of cells that lacked GCaMP expression were washed with PBS and the medium was replaced with NEUROBASAL™ (neural cell culture medium) plus Fluo4 AM (5 μM, Life Technologies) for 1 hour at 37° C. The cultures were then washed with fresh Neurobasal and allowed to recover for an additional […] at 37° C. before recording on a Zeiss Axio Observer. To assess Ca^2+ fluctuations, cultures were imaged at a rate of 17 frames per second. To analyze the results, ROI were selected by hand using Zen software. For organoids, the outer edge of the tissue was selected and for monolayer cultures, individual neurons were selected. The relative fluorescent units (RFU) measured at the ROIs were processed using Python3. A detrend function with a robust linear regression was performed for normalization and a 4 Hz lowpass Butterworth filter was applied to minimize noise."}, "Human PSCs (organoids) [1]": {"tested_on": "Human PSCs (organoids)", "assay": "Organoid diameter from phase contrast images", "type": "cell-based", "protocol": "Human PSCs were seeded at 125 k cells/cm^2 in mTeSR supplemented with 10 μM ROCK inhibitor and 2 μM CHIR99102. For WNT treated cells, CHIR was supplemented into the media at each feed through day 7. 48 hours later, cell layers were dissociated using Accutase and counted. For organoid culture, 800 μm pyramidal PDMS inserts were placed into 24-well plates. 1 ml mTeSR containing 10 μM ROCK inhibitor was added to the wells containing the molds and the plate was centrifuged at 2,000×g for 3 minutes to get rid of any bubbles. Dissociated cells, either hPSCs or WNT pre-treated cells, were then added slowly into the wells at 10,000 cells per organoid in mTeSR supplemented with 10 μM ROCK inhibitor, 0.2 LDN193189, and 10 μM SB431542 ([…], Cambridge, MA). […] To change the media on the cells for the rest of the differentiation, the organoids were pipetted into a conical and allowed to settle. Old media was aspirated off and new media was used to resuspend the organoids and transfer them back to the 6 well. On day 3, medium was changed to mTeSR supplemented with dual SMAD inhibitors only. […] Phase contrast images of the organoids were taken using the EVOS® FL Imaging System. The size analysis performed in FIG. 12 was performed manually using Image J. The size analysis performed in FIG. 13 was done using a Python script to first segment the organoids using a watershed segmentation algorithm. […]"}, "Human PSCs (organoids) [2]": {"tested_on": "Human PSCs (organoids)", "assay": "3D organoid hindbrain differentiation, flow cytometry of CHX10, LHX5, PHOX2A, PHOX2B at day 17", "type": "cell-based", "protocol": "Human PSCs were seeded at 125 k cells/cm^2 in mTeSR supplemented with 10 μM ROCK inhibitor and 2 μM CHIR99102. For WNT treated cells, CHIR was supplemented into the media at each feed through day 7. 48 hours later, cell layers were dissociated using Accutase and counted. For organoid culture, 800 μm pyramidal PDMS inserts were placed into 24-well plates. 1 ml mTeSR containing 10 μM ROCK inhibitor was added to the wells containing the molds and the plate was centrifuged at 2,000×g for 3 minutes to get rid of any bubbles. Dissociated cells, either hPSCs or WNT pre-treated cells, were then added slowly into the wells at 10,000 cells per organoid in mTeSR supplemented with 10 μM ROCK inhibitor, 0.2 LDN193189, and 10 μM SB431542 ([…], Cambridge, MA). […] To change the media on the cells for the rest of the differentiation, the organoids were pipetted into a conical and allowed to settle. Old media was aspirated off and new media was used to resuspend the organoids and transfer them back to the 6 well. On day 3, medium was changed to mTeSR supplemented with dual SMAD inhibitors only. […] To dissociate organoid cultures, samples were collected and washed with 1 mL of PBS. The organoids were then transferred to 1 well of a 6-well plate with 2 ml of accutase and incubated on the rotary at 37° C. for 15 minutes. […] The dissociated cells were then transpired to a 15 mL conical and diluted with 3 times the volume of PBS."}, "[3]": {"details": "pur 100 nM and RA 100 nM, day 17 (FIG. 12F)"}}, "data": [{"smiles": "Cc1cnc(-c2cnc(NCCNc3ccc(C#N)cn3)nc2-c2ccc(Cl)cc2Cl)[nH]1", "note": "[CHIR 99021, 6-[[2-[[4-(2,4-Dichlorophenyl)-5-(5-methyl-1H-imidazol-2-yl)-2-pyrimidinyl]amino]ethyl]amino]-3-pyridinecarbonitrile]", "values": [{"measurement": "CHX10 percentage", "setting": "WTB and WTC hPSCs", "value": "increased"}]}, {"smiles": "CC1=C(/C=C/C(C)=C/C=C/C(C)=C/C(=O)O)C(C)(C)CCC1", "note": "[RA, retinoic acid]", "values": [{"measurement": "RA concentration at which CHX10 percentage peaked", "setting": "hPSCs; pur constant at 100 nM", "value": "30 to 100", "unit": "nM"}, {"measurement": "RA concentration at which LHX5 percentage peaked", "setting": "hPSCs; pur constant at 100 nM", "value": 10, "unit": "nM"}]}, {"smiles": "c1ccc2c(Oc3nc(Nc4ccc(N5CCOCC5)cc4)c4ncn(C5CCCCC5)c4n3)cccc2c1", "note": "[pur, 9-Cyclohexyl-N-[4-(4-morpholinyl)phenyl]-2-(1-naphthalenyloxy)-9H-purin-6-amine]", "values": [{"measurement": "LHX5 percentage", "setting": "hPSCs; at 10 and 30 nM pur compared to 100 nM pur, RA kept at 100 nM, p<0.05", "value": "increased"}, {"measurement": "CHX10 percentage", "setting": "hPSCs; at 30 and 100 nM pur, RA kept at 100 nM, p<0.05", "value": "greater"}, {"measurement": "periodic synchronous Ca^2+ fluctuations", "setting": "organoids; organoids differentiated with 10 nM pur (V0^lowV2a^low)", "value": "few periodic synchronous events"}, {"measurement": "periodic synchronous Ca^2+ fluctuations", "setting": "organoids; organoids differentiated with 100 nM pur (V0^highV2a^low)", "value": "more rhythmic overall"}, {"measurement": "periodic synchronous Ca^2+ fluctuations", "setting": "organoids; organoids differentiated with 1 μM pur (V0^lowV2a^high)", "value": "more sporadic"}, {"measurement": "organoid diameter", "setting": "Human PSCs (organoids) [1]; 10 nM and 100 nM pur groups, throughout the differentiation", "value": "~500", "unit": "μm"}, {"measurement": "organoid diameter", "setting": "Human PSCs (organoids) [1]; 1 μM pur group, by day 17", "value": "approximately 700 μm"}, {"measurement": "percentages of V2a, V0 and chemosensing subtypes", "setting": "Human PSCs (organoids) [2]; 10 nM pur, day 17 (FIG. 13D)", "value": "low percentages of all subtypes"}, {"measurement": "PHOX2A and PHOX2B percentages", "setting": "Human PSCs (organoids) [2]; 100 nM and 1 μM pur condition versus 10 nM, day 17", "value": "highest"}, {"measurement": "percentage of CHX10 positive cells", "setting": "Human PSCs (organoids) [2]; 100 nM pur, day 17 (FIG. 13D)", "value": 3.5, "unit": "%"}, {"measurement": "percentage of LHX5 positive cells", "setting": "Human PSCs (organoids) [2]; 100 nM pur, day 17 (FIG. 13D)", "value": 36.5, "unit": "%"}, {"measurement": "percentage of CHX10 positive cells", "setting": "Human PSCs (organoids) [2]; 1 μM pur, day 17 (FIG. 13D)", "value": 23.3, "unit": "%"}, {"measurement": "percentage of LHX5 positive cells", "setting": "Human PSCs (organoids) [2]; 1 μM pur, day 17 (FIG. 13D)", "value": 3.1, "unit": "%"}, {"measurement": "percentage of CHX10^+ cells", "setting": "Human PSCs (organoids) [2]; [3]", "value": "< 5", "unit": "%"}, {"measurement": "percentage of LHX5^+ cells", "setting": "Human PSCs (organoids) [2]; [3]", "value": "~80", "unit": "%"}, {"measurement": "percentage of PHOX2A^+ cells", "setting": "Human PSCs (organoids) [2]; [3]", "value": "< 5", "unit": "%"}, {"measurement": "percentage of PHOX2B^+ cells", "setting": "Human PSCs (organoids) [2]; [3]", "value": "< 5", "unit": "%"}]}]}
